Assay results published in patent publication US11535838B2, “Serine protease molecules and therapies” (Research Development Foundation, priority 2012, dated 2022).

Assays:
A375-M [1] = experiment: Cytotoxic effects of GrB/ZME fusion constructs; assay type: cell-based; details: specifically targeted by ZME
Excerpt: (§1) GrB-ZME(VL-VH) fusion proteins were constructed as indicated above using different linkers between the GrB and ZME sequences. The construct SL used the G4S linker; LL was four repeats of the HL (EAAAK (SEQ ID NO: 14)) linker and X was a G4S+218 linker.
(§2) Two glycosylation sites were identified within the GrB molecule (d1 and d2) and modified the GrB/scFvMEL fusion construct as detailed above and as shown in FIG. 4 (d1 indicates N51S; d2 indicates N84A). Each glycosylation site was modified and then a molecule containing both modifications was generated. The individual modifications had little effect on in vitro GrB enzymatic activity (see, e.g., FIG. 4). […] There was little impact on the non-specific cell line (SKOV3).
(§3) Three expression constructs were developed and tested. (LL) encoded GrB-HL-HL-HL-HL-ZME(VL-VH), plasmid designation pSECTag-GrB-HL4-ZME; (E) encoded GrB HL HL HL HL T1 ZME(VL-VH), plasmid designation pSECTag-GrB-HL4-T1-ZME; and (J) (LL) encoded GrB (d1, A, N) HL HL HL HL ZME(VL-VH), plasmid designation pSECTag-GrB-HL4-ZME. The constructs were expressed and tested. […] Incorporation of d1 modified GrB into the construct further increased the specific cytotoxicity of the construct with no impact on non-specific cytotoxicity.
(§4) These constructs were expressed and tested.
(§5) These constructs were expressed and tested. […] Incorporation of the “26” molecule increased the toxicity to target and non-target cells alike.

AAB-527 [2] = experiment: Cytotoxic effects of GrB/ZME fusion constructs; assay type: cell-based; details: AAB-527, specifically targeted by ZME
Excerpt: as §1, §2, §3, §4, §5

SKOV3 [3] = experiment: Cytotoxic effects of GrB/ZME fusion constructs; assay type: cell-based; details: SKOV3, non-specific control
Excerpt: as §1, §2, §3, §4, §5

Calu-3 = experiment: Cytotoxic effects of GrB/4D5 fusion constructs with and without a translocation domain; assay type: cell-based; details: Calu-3, Her2 Exp. High
Excerpt: (§6) Further GrB expression constructs were developed and tested.
as §4

MDA-MB-453 = experiment: as above; assay type: cell-based; details: MDA-MB-453, Her2 Exp. High
Excerpt: as §6, §4

Me-180 = experiment: as above; assay type: cell-based; details: Me-180, Her2 Exp. none
Excerpt: as §6, §4

NCI-N87 [4] = experiment: as above; assay type: cell-based; details: NCI-N87, Her2 Exp. High
Excerpt: as §6, §4

SKBR3 [5] = experiment: as above; assay type: cell-based; details: SKBR3, Her2 Exp. High
Excerpt: as §6, §4

SKOV3 [6] = experiment: as above; assay type: cell-based; details: SKOV3, Her2 Exp. High
Excerpt: as §6, §4

A172 = experiment: Cytotoxic effects of GrB versus GrB-TWEAK; assay type: cell-based
Excerpt: (§7) Further GrB expression constructs were developed and tested. (GrB) encoded GrB, plasmid designation pSECTag-GrB. […] These constructs were expressed and tested.

A2780 = experiment: Cytotoxic effects of GrB versus GrB-TWEAK; assay type: cell-based
Excerpt: as §7

A375-M [7] = experiment: Cytotoxic effects of GrB versus GrB-TWEAK; assay type: cell-based
Excerpt: as §7

AAB-527 [8] = experiment: Cytotoxic effects of GrB versus GrB-TWEAK; assay type: cell-based
Excerpt: as §7

BxPC-3 = experiment: Cytotoxic effects of GrB versus GrB-TWEAK; assay type: cell-based
Excerpt: as §7

ES-2 = experiment: Cytotoxic effects of GrB versus GrB-TWEAK; assay type: cell-based
Excerpt: as §7

HEY = experiment: Cytotoxic effects of GrB versus GrB-TWEAK; assay type: cell-based
Excerpt: as §7

HT-1080 = experiment: Cytotoxic effects of GrB versus GrB-TWEAK; assay type: cell-based
Excerpt: as §7

HT-29 [9] = experiment: Cytotoxic effects of GrB versus GrB-TWEAK; assay type: cell-based
Excerpt: as §7

HeyA8-MDR = experiment: Cytotoxic effects of GrB versus GrB-TWEAK; assay type: cell-based
Excerpt: as §7

HeyA8 = experiment: Cytotoxic effects of GrB versus GrB-TWEAK; assay type: cell-based
Excerpt: as §7

Jurkat = experiment: Cytotoxic effects of GrB versus GrB-TWEAK; assay type: cell-based
Excerpt: as §7

MCF-7 [10] = experiment: Cytotoxic effects of GrB versus GrB-TWEAK; assay type: cell-based
Excerpt: as §7

MDA-MB231 = experiment: Cytotoxic effects of GrB versus GrB-TWEAK; assay type: cell-based
Excerpt: as §7

MDA-MB435/MDR1 = experiment: Cytotoxic effects of GrB versus GrB-TWEAK; assay type: cell-based
Excerpt: as §7

MDA-MB435 = experiment: Cytotoxic effects of GrB versus GrB-TWEAK; assay type: cell-based
Excerpt: as §7

OC-316 = experiment: Cytotoxic effects of GrB versus GrB-TWEAK; assay type: cell-based
Excerpt: as §7

SB2 [11] = experiment: Cytotoxic effects of GrB versus GrB-TWEAK; assay type: cell-based
Excerpt: as §7

SK-Mel-1 = experiment: Cytotoxic effects of GrB versus GrB-TWEAK; assay type: cell-based
Excerpt: as §7

SK-Mel-28 = experiment: Cytotoxic effects of GrB versus GrB-TWEAK; assay type: cell-based
Excerpt: as §7

SK-Mel-5 = experiment: Cytotoxic effects of GrB versus GrB-TWEAK; assay type: cell-based
Excerpt: as §7

SKBR3 [12] = experiment: Cytotoxic effects of GrB versus GrB-TWEAK; assay type: cell-based
Excerpt: as §7

T-24 = experiment: Cytotoxic effects of GrB versus GrB-TWEAK; assay type: cell-based
Excerpt: as §7

U87MG = experiment: Cytotoxic effects of GrB versus GrB-TWEAK; assay type: cell-based
Excerpt: as §7

WM35 [13] = experiment: Cytotoxic effects of GrB versus GrB-TWEAK; assay type: cell-based
Excerpt: as §7

Calu3 = experiment: In vitro cytotoxic effects of GrB-based fusions, crystal violet; assay type: cell-based; details: Table 11, Calu3, 72 h exposure
NCI-N87 [14] = experiment: as above; assay type: cell-based; details: Table 11, NCI-N87, 72 h exposure
MDA MB453 = experiment: as above; assay type: cell-based, human; details: Table 11, MDA MB453, 72 h exposure
eB-1 = experiment: as above; assay type: cell-based, human; details: Table 11, eB-1, 72 h exposure
MDA MB435 = experiment: as above; assay type: cell-based; details: Table 11, MDA MB435, 72 h exposure
Me180 = experiment: as above; assay type: cell-based, human; details: Table 11, Me180, 72 h exposure
A375 = experiment: Cytotoxicity of GrB-Fc-IT4 constructs; assay type: cell-based
Excerpt: (§8) As an initial test of this arrangement a construct was produced comprising GrB-Fc-IT4 (scFv). Specifically, the IT4 scFv targets the product of the tumor necrosis factor receptor superfamily, member 12A (TNFRSF12A) gene and was previously described in Zhou et al., 2011, which is incorporated herein by reference. The sequence of the fusion protein produced by the construct is provided as SEQ ID NO: 45. The constructs was expressed and purified as detailed supra and tested for activity against a panel of cells lines (using GrB alone a control).

A549 = experiment: Cytotoxicity of GrB-Fc-IT4 constructs; assay type: cell-based
Excerpt: as §8

AsPc-1 = experiment: Cytotoxicity of GrB-Fc-IT4 constructs; assay type: cell-based
Excerpt: as §8

Capan-1 = experiment: Cytotoxicity of GrB-Fc-IT4 constructs; assay type: cell-based
Excerpt: as §8

Capan-2 = experiment: Cytotoxicity of GrB-Fc-IT4 constructs; assay type: cell-based
Excerpt: as §8

H1437 = experiment: Cytotoxicity of GrB-Fc-IT4 constructs; assay type: cell-based
Excerpt: as §8

H1975 = experiment: Cytotoxicity of GrB-Fc-IT4 constructs; assay type: cell-based
Excerpt: as §8

H2073 = experiment: Cytotoxicity of GrB-Fc-IT4 constructs; assay type: cell-based
Excerpt: as §8

H3255 = experiment: Cytotoxicity of GrB-Fc-IT4 constructs; assay type: cell-based
Excerpt: as §8

H358 = experiment: Cytotoxicity of GrB-Fc-IT4 constructs; assay type: cell-based
Excerpt: as §8

H520 = experiment: Cytotoxicity of GrB-Fc-IT4 constructs; assay type: cell-based
Excerpt: as §8

HCC2279 = experiment: Cytotoxicity of GrB-Fc-IT4 constructs; assay type: cell-based
Excerpt: as §8

HCC827 = experiment: Cytotoxicity of GrB-Fc-IT4 constructs; assay type: cell-based
Excerpt: as §8

HT-29 [15] = experiment: Cytotoxicity of GrB-Fc-IT4 constructs; assay type: cell-based
Excerpt: as §8

L3.6p1 = experiment: Cytotoxicity of GrB-Fc-IT4 constructs; assay type: cell-based
Excerpt: as §8

MCF-7 [16] = experiment: Cytotoxicity of GrB-Fc-IT4 constructs; assay type: cell-based
Excerpt: as §8

MDA-MB-231 = experiment: Cytotoxicity of GrB-Fc-IT4 constructs; assay type: cell-based
Excerpt: as §8

MDA-MB-435 = experiment: Cytotoxicity of GrB-Fc-IT4 constructs; assay type: cell-based
Excerpt: as §8

MDA-MD-231-Luc = experiment: Cytotoxicity of GrB-Fc-IT4 constructs; assay type: cell-based
Excerpt: as §8

MEF 3.5 −/− = experiment: Cytotoxicity of GrB-Fc-IT4 constructs; assay type: cell-based
Excerpt: as §8

SB2 [17] = experiment: Cytotoxicity of GrB-Fc-IT4 constructs; assay type: cell-based
Excerpt: as §8

SK-MEF-28 = experiment: Cytotoxicity of GrB-Fc-IT4 constructs; assay type: cell-based
Excerpt: as §8

WM35P2N1 = experiment: Cytotoxicity of GrB-Fc-IT4 constructs; assay type: cell-based
Excerpt: as §8

WM35 [18] = experiment: Cytotoxicity of GrB-Fc-IT4 constructs; assay type: cell-based
Excerpt: as §8

[19] = Enzymatic assay of GrB component, continuous colorimetric assay; assay type: biochemical; details: substrate BAADT, 25° C., native GrB as standard
Protocol: The enzymatic activity of the GrB component was determined in a continuous colorimetric assay using N-α-t-butoxycarbonyl-L-alanyl-L-alanyl-L-aspartyl-thiobenzylester (BAADT) as a specific substrate (Liu et al., 2003). Assays consisted of commercial human GrB (Enzyme Systems Products, Livermore, Calif.) or GrB-based fusion proteins in BAADT at 25° C. […] The specific activity of GrB-based fusion proteins was calculated using native GrB as the standard.

GrB: recombinant Granzyme B without targeting moiety, plasmid pSECTag-GrB, used as control
IC50 (A375-M [1]): > 2000 nM
IC50 (AAB-527 [2]): > 2000 nM
IC50 (SKOV3 [3]): > 2000 nM
IC50 (Calu-3): > 1000 nM
IC50 (MDA-MB-453): > 1000 nM
IC50 (Me-180): > 1000 nM
IC50 (NCI-N87 [4]): > 1000 nM
IC50 (SKBR3 [5]): > 1000 nM
IC50 (SKOV3 [6]): > 1000 nM
IC50 (A172): 1910 nM
IC50 (A2780): > 1300 nM
IC50 (A375-M [7]): > 1920 nM
IC50 (AAB-527 [8]): 1040 nM
IC50 (BxPC-3): > 1920 nM
IC50 (ES-2): 1440 nM
IC50 (HEY): 1020 nM
IC50 (HT-1080): 1300 nM
IC50 (HT-29 [9]): 800 nM
IC50 (HeyA8-MDR): > 700 nM
IC50 (HeyA8): 841 nM
IC50 (Jurkat): > 700 nM
IC50 (MCF-7 [10]): > 1920 nM
IC50 (MDA-MB231): > 1920 nM
IC50 (MDA-MB435/MDR1): 447 nM
IC50 (MDA-MB435): 445 nM
IC50 (OC-316): > 1920 nM
IC50 (SB2 [11]): > 1920 nM
IC50 (SK-Mel-1): > 1920 nM
IC50 (SK-Mel-28): > 1920 nM
IC50 (SK-Mel-5): 3010 nM
IC50 (SKBR3 [12]): 660 nM
IC50 (T-24): 2630 nM
IC50 (U87MG): 825 nM
IC50 (WM35 [13]): > 1920 nM
IC50 (Calu3): > 1500 nM
IC50 (NCI-N87 [14]): > 1500 nM
IC50 (MDA MB453): > 1500 nM
IC50 (eB-1): > 1500 nM
IC50 (MDA MB435): > 1500 nM
IC50 (Me180): > 1500 nM
IC50 (A375): > 1920 nM
IC50 (A549): 602 nM
IC50 (AsPc-1): 1300 nM
IC50 (Capan-1): 2340 nM
IC50 (Capan-2): > 3200 nM
IC50 (H1437): > 3200 nM
IC50 (H1975): > 3200 nM
IC50 (H2073): > 3200 nM
IC50 (H3255): 2360 nM
IC50 (H358): > 3200 nM
IC50 (H520): 259 nM
IC50 (HCC2279): 526 nM
IC50 (HCC827): 1410 nM
IC50 (HT-29 [15]): > 3200 nM
IC50 (L3.6p1): 1220 nM
IC50 (MCF-7 [16]): > 1920 nM
IC50 (MDA-MB-231): > 1930 nM
IC50 (MDA-MB-435): 445 nM
IC50 (MDA-MD-231-Luc): 3550 nM
IC50 (MEF 3.5 −/−): > 3200 nM
IC50 (SB2 [17]): > 1920 nM
IC50 (SK-MEF-28): > 1920 nM
IC50 (WM35P2N1): 1540 nM
IC50 (WM35 [18]): > 1920 nM

native GrB: commercial human GrB (Enzyme Systems Products) used as the standard
GrB enzymatic activity [19]: 1.19×10^5 U/μmoL
